Consider two compounds from paper PMC8903829 (eLife, 2022).

Data set [1] is described as follows: Bioanalytical assessment of plasma and brain concentrations after mouse DC-MES assay. It counts as in vivo. To be noted: mouse, WT mouse DC-MES acute. Here is the method: Approximately 0.5 mL of blood was collected from each mouse at the end of the assay via cardiac puncture under deep anesthesia. The blood samples were collected in a syringe and transferred to tubes containing EDTA. Blood was stored at 4 °C until centrifuged within 30 min of collection. Plasma was harvested and placed on dry ice and stored in a freezer set to maintain a temperature of –70°C to –80°C until analysis. Brains were harvested immediately after blood collection and placed on dry ice prior to storage in a freezer set to maintain a temperature of –70°C to –80°C until analysis.
Extraction of plasma samples was carried out by protein precipitation using acetonitrile. Plasma samples (50 µL) were mixed with 50 µL of internal standard (IS) solution in water followed by addition of 10 µL of concentrated ortho-phosphoric acid and 200 µL of acetonitrile. Samples were vortexed for 30 seconds, centrifuged at 13,000 rpm for 20 min, decanted in to a 96-well plate, and further centrifuged at 4000 rpm for 20 min. The samples were analyzed by UHPLC-ESI-MS/MS as described below.
Prior to extraction, pre-weighed whole brains were homogenized in 1:1 acetonitrile/water (v/v) (4 mL per mouse brain) using an IKA T18 ULTRA-TURRAX Homogenizer at the setting of 4 for approximately 2 min. The homogenate was centrifuged at 13,000 rpm for 20 min and 50 µL of the supernatant were treated exactly as described above for plasma samples. […]
Samples were analyzed by UHPLC-ESI MS/MS using a TQ-5500 Sciex triple quadrupole mass spectrometer equipped with a Shimadzu Nexera UHPLC pump and auto-sampler system using an ACE C18 PFP, 2.50 × 50 mm, 1.7 µm particle size column and gradient elution consisting of solvent A (0.1% formic acid in water) and solvent B (0.1% formic acid in acetonitrile) starting at 20% B from 0 min to 0.4 min and then increased to 100% B from 0.4 min to 0.6 min. At 2.0 min, the mobile phase composition was switched back to […] for 1 min. The flow rate used throughout the experiment was […]. […] The UHPLC-ESI MS/MS system was controlled by Analyst 1.6.
Sample concentrations were determined using a linear calibration function, weighted 1 /X, generated by the regression of analyte to IS peak area ratios in the standard samples to their respective concentrations. Acceptance criteria for the analytical run required that the back calculated values of the standards and the QC samples fell within ±20% of their nominal values, except for the lowest standard or lower limit of quantitation (LLOQ), for which the acceptance criterion was ±25%. At least 6 out of 12 standard points had to show back-calculated values within ±20% of their nominal concentrations for the calibration to be accepted. At least three QC samples, one at each level, had to show back-calculated values within ±20% of their nominal concentrations for the whole sample batch to be valid.

A further data set deals with Scn8a^N1768D/+ mice. Put plainly: Modified 6 Hz psychomotor seizure assay. To be noted: for EC50: Mus musculus, read-out: brain EC50. It counts as in vivo, mouse. As to the method: Phenytoin was formulated in physiologic saline and was administered intraperitoneally (i.p.) using a 25-gauge needle at a dose volume of 10 mL/kg. All compounds were administered 2 hr prior to electrical seizure induction for all seizure models employed in this study.
Scn8a^N1768D/+heterozygous mice were tested at 5 weeks of age (p35). The modified 6 Hz seizure assay in Scn8a^N1768D/+heterozygous mice was adapted from the traditional 6 Hz assay psychomotor seizure assay to provide a measure of in vivo on target (NaV1.6 mediated) efficacy ([Barton et al., 2001]). The modified assay used a low frequency (6 Hz) but long-duration stimulation (3 s) to induce seizures. […] An electroshock (6 Hz, 12 mA) was delivered for 3 s (at 0.3-ms pulse interval) by corneal electrodes (Electro Convulsive Therapy Unit 57,800 from Ugo Basile). Immediately prior to the electroshock, the animals’ eyes were anesthetized with a drop of Alcaine (0.5% proparacaine hydrochloride).
An animal was considered protected in the assay upon prevention of GTC with hindlimb extension and was then scored ‘0’. An animal displaying GTC with hindlimb extension was considered not protected and is then scored ‘1’. The experimenter scoring the seizure behavior was blinded to the treatment.

Where two headings read alike, the source gives them in different places.

Usually EC50 stands for the midpoint of the concentration-response curve.

Turning to `NC(=O)N1c2ccccc2C=Cc2ccccc21` [carbamazepine, Carbamazepine, reference compound], the concentration at 2 h in data set [1] (brain, oral, 10 mg/kg, Study17131, 10 mg/kg, read-out: Mean [Brain]) was 18.3 µM; in data set [1] (brain, oral, 10 mg/kg, Study17134, 10 mg/kg, read-out: Mean [Brain]), 17.4 µM; in data set [1] (brain, oral, 30 mg/kg, Study17131, 30 mg/kg, read-out: Mean [Brain]) it was 43.1 µM; in data set [1] (brain, oral, 30 mg/kg, Study17134, 30 mg/kg, read-out: Mean [Brain]), 46 µM; in data set [1] (brain, oral, 100 mg/kg, Study17131, 100 mg/kg, read-out: Mean [Brain]), 115 µM; in data set [1] (plasma, oral, 10 mg/kg, Study17131, 10 mg/kg, read-out: Mean [Palsma]) it was 13.6 µM. For the same compound, the concentration at 2 h amounted to 16.6 µM in data set [1] (plasma, oral, 10 mg/kg, Study17134, 10 mg/kg, read-out: Mean [Palsma]); 34.5 µM in data set [1] (plasma, oral, 30 mg/kg, Study17131, 30 mg/kg, read-out: Mean [Palsma]); 52.5 µM in data set [1] (plasma, oral, 30 mg/kg, Study17134, 30 mg/kg, read-out: Mean [Palsma]); 91.3 µM in data set [1] (plasma, oral, 100 mg/kg, Study17131, 100 mg/kg, read-out: Mean [Palsma]). The EC50 in the data set with Scn8a^N1768D/+ mice (Scn8a^N1768D/+ 6 Hz model, 2 hr post dose (oral; phenytoin i.p.)) came to 9.4 µM. Moreover, the “SCN8A mouse 6HZ Fraction of animals seizing” value (“SCN8A mouse 6HZ Fraction” below) is listed as 0.5 in the data set on Scn8a^N1768D/+ mice (Study15064, 3 mg/kg); 0.75 in the data set with Scn8a^N1768D/+ mice (Study15064, 10 mg/kg); 0.75 with Scn8a^N1768D/+ mice (Study16152, 3 mg/kg); 0.667 with Scn8a^N1768D/+ mice (Study16152, 10 mg/kg); 0 with Scn8a^N1768D/+ mice (Study16152, 30 mg/kg); 0.8 in the data set with Scn8a^N1768D/+ mice (Study16162, 3 mg/kg). Further, the “SCN8A mouse 6HZ Fraction” value came out at 0.4 in the data set with Scn8a^N1768D/+ mice (Study16162, 10 mg/kg) and 0 in the data set on Scn8a^N1768D/+ mice (Study16162, 100 mg/kg).
In the case of `COC[C@@H](NC(C)=O)C(=O)NCc1ccccc1` [lacosamide, Lacosamide, reference compound], the concentration at 2 h in data set [1] (in vivo, 3 mg/kg, Study18003, 3 mg/kg, read-out: Mean [Brain]) is 3.47 µM; in data set [1] (in vivo, 3 mg/kg, Study18003, 3 mg/kg, read-out: Mean [Palsma]), 3.25 µM; in data set [1] (in vivo, 3 mg/kg, Study18053, 3 mg/kg, read-out: Mean [Brain]) it was 1.95 µM; in data set [1] (in vivo, 3 mg/kg, Study18053, 3 mg/kg, read-out: Mean [Palsma]), 6.21 µM; in data set [1] (in vivo, 3 mg/kg, Study18063, 3 mg/kg, read-out: Mean [Brain]), 1.26 µM; in data set [1] (in vivo, 3 mg/kg, Study18063, 3 mg/kg, read-out: Mean [Palsma]), 4.46 µM. Further, the concentration at 2 h in data set [1] (in vivo, 10 mg/kg, Study18003, 10 mg/kg, read-out: Mean [Brain]) came to 11.5 µM; in data set [1] (in vivo, 10 mg/kg, Study18003, 10 mg/kg, read-out: Mean [Palsma]), 9.52 µM; in data set [1] (in vivo, 30 mg/kg, Study18003, 30 mg/kg, read-out: Mean [Brain]), 34.3 µM; in data set [1] (in vivo, 30 mg/kg, Study18003, 30 mg/kg, read-out: Mean [Palsma]), 26.7 µM. Further, the EC50 in the data set with Scn8a^N1768D/+ mice (2 h) is 3.3 µM. Further, the “SCN8A mouse 6HZ Fraction” value was 0.429 in the data set on Scn8a^N1768D/+ mice (Study18007, 3 mg/kg); 0.286 in the data set with Scn8a^N1768D/+ mice (Study18007, 10 mg/kg); 0.286 in the data set with Scn8a^N1768D/+ mice (Study18007, 30 mg/kg); 0.858 in the data set with Scn8a^N1768D/+ mice (Study18011, 1 mg/kg); 0.5 with Scn8a^N1768D/+ mice (Study18011, 30 mg/kg); 0.286 in the data set with Scn8a^N1768D/+ mice (Study18011, 56 mg/kg). The “SCN8A mouse 6HZ Fraction” value in the data set on Scn8a^N1768D/+ mice (Study18028, 10 mg/kg) came out at 0.375; in the data set with Scn8a^N1768D/+ mice (Study18042, 10 mg/kg), 0.5.
